Data reported in patent US20140296484A1, “Cyclin Based Inhibitors of CDK2 and CDK4” (University of South Carolina, priority 2013, published 2014).
Where two headings read alike, the source gives them in different places. Where a SMILES comes first, the peptide text is derived from it. The star is where a group is joined. X5 = Cc1nc(C(=O)*)nn1-c1cc(Cl)cc(Cl)c1; X1 = Cc1nc(C(=O)*)nn1-c1ccc(Cl)cc1; Bz = O=C(c1ccccc1)*

Legend:
CDK2/cyclin A = CDK2/cyclin A (Homo sapiens, UniProt P20248); test: Fluorescence polarization (FP) competitive binding assay
Experimental: (§1) Once the compounds were characterized, their binding affinities were tested by FP assay.

CDK4/Cyclin D1 [1] = target: T1, CDK4/Cyclin D1 (Homo sapiens, UniProt P24385); test: as above
T1 sequence (P24385 whole entry): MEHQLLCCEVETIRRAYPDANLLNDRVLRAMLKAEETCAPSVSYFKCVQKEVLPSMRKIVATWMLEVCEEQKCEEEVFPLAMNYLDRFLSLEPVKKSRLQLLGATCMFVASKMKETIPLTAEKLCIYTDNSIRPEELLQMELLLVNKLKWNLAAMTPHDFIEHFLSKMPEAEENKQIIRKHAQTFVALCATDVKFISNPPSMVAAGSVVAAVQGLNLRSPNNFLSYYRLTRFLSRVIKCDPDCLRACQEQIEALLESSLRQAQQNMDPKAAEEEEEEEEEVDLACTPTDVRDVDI
T1 sequence (P11802 whole entry partner): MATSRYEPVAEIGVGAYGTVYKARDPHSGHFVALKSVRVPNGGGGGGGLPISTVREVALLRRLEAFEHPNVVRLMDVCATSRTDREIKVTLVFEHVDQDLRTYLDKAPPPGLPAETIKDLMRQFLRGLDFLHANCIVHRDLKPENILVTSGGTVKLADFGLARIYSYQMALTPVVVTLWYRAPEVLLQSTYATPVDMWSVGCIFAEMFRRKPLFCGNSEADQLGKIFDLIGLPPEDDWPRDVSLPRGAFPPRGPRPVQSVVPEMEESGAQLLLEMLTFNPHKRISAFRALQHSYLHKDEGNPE
Experimental: (§2) In order to assess the contribution of the PLA H-bond acceptor, analogous compounds were made in each series and activities for the 4-chloro and 3,5-dichloro analog were evaluated in each context.
(§3) Several additional analogs were synthesized in addition to the 3,5 dichloro and 4-chlorophenyl analogs. In addition to determining their inhibition of CDK2/cyclin A, the availability of the CDK4/cyclin D1 binding assay was exploited to develop SAR for both kinases.
as §1

[2] = as above; conditions: Table 20; read-out: CDK2/Cyclin A IC050
Experimental: as §2, §3, §1

CDK2/Cyclin A2 = CDK2/Cyclin A2 (Homo sapiens, UniProt P20248); test: In vitro kinase assay, 32P filter capture with GST-Rb substrate; assay type: biochemical
CDK4/Cyclin D1 [3] = target: T1, CDK4/Cyclin D1; test: as above; assay type: biochemical; conditions: kinase assay
[4] = competitive binding (FP) assay, read-out: CDK2/Cyclin A IC50
[5] = competitive binding (FP) assay, read-out: CDK4/Cyclin D1 IC50
[6] = Table 15, read-out: CDK2/Cyclin D1 IC50

Molecule | IC50 (CDK2/cyclin A; [4]) | IC50 (CDK4/Cyclin D1 [1]; [6]) | further results
CC[C@H](C)[C@H](NC(=O)[C@H](CC(C)C)NC(=O)[C@H](CCCNC(=N)N)NC(=O)c1nc(C)n(-c2cc(Cl)cc(Cl)c2)n1)C(=O)N[C@@H](Cc1ccccc1)C(=O)O [SCCP 5773, 1-(3,5-dichlorophenyl)-5-methyl-1H-1,2,4-triazole-3-carbonyl-RLIF] (X5-RLIF-OH) | 12 µM |  | IC50 (CDK4/Cyclin D1 [1]; [5]): 27 µM
CC[C@H](C)[C@H](NC(=O)[C@H](CC(C)C)NC(=O)[C@H](CCCNC(=N)N)NC(=O)c1nc(C)n(-c2ccc(Cl)cc2)n1)C(=O)N[C@@H](Cc1ccccc1)C(=O)O [SCCP 5774] (X1-RLIF-OH) | 25 µM |  | IC50 (CDK4/Cyclin D1 [1]; [5]): 11 µM
CCN(CCc1ccccc1)C(=O)CC(CC(C)C)NC(=O)[C@H](CCCNC(=N)N)NC(=O)c1nc(C)n(-c2cc(Cl)cc(Cl)c2)n1 (stereo partly drawn) [SCCP 6003] | 85.6 µM |  | 
Cc1nc(C(=O)N[C@@H](CCCNC(=N)N)C(=O)NC(CC(C)C)C(=O)NCCCc2ccccc2)nn1-c1cc(Cl)cc(Cl)c1 (stereo partly drawn) [SCCP 6004] | 57.7 µM |  | 
CC[C@H](C)[C@H](NC(=O)[C@H](CC(C)C)NC(=O)[C@H](CCCNC(=N)N)NC(=O)c1ccccc1)C(=O)N[C@@H](Cc1ccccc1)C(N)=O [compound 5857] (Bz-RLIF-NH2) |  |  | IC50 (CDK2/cyclin A): > 100 µM; IC50 (CDK4/Cyclin D1 [1]): 100 to 180 µM
Cc1nc(C(=O)NC(CCCCNC(=N)N)C(=O)NC(CC(C)C)c2ccccc2OCC(C)C)nn1-c1cc(Cl)cc(Cl)c1 (stereo not drawn) [compound 5978] | > 180 µM |  | IC50 [2]: > 180 µM
CCCOc1ccc(C)cc1C(CC(C)C)NC(=O)C(CCCCNC(=N)N)NC(=O)c1nc(C)n(-c2cc(Cl)cc(Cl)c2)n1 (stereo not drawn) [compound 5980] | > 180 µM |  | IC50 [2]: > 180 µM
H-HAKTRLIF-NH2 |  |  | IC50 (CDK2/Cyclin A2): 50 µM; IC50 (CDK4/Cyclin D1 [3]): 25 µM
H-SAKRALFGM-NH2 |  |  | IC50 (CDK4/Cyclin D1 [3]): 68 µM
H-SAKRNLFGM-NH2 |  |  | IC50 (CDK4/Cyclin D1 [3]): 146 µM

The next lines start with results.

IC50 (CDK2/cyclin A; [4]) | IC50 (CDK4/Cyclin D1 [1]; [6]) | Molecule | further results
> 180 µM |  | COc1ccccc1CC(CC(C)C)NC(=O)C(CCCCNC(=N)N)NC(=O)c1nc(C)n(-c2cc(Cl)cc(Cl)c2)n1 (stereo not drawn) [compound 5982] | IC50 [2]: > 180 µM
> 180 µM |  | CCOc1ccccc1C(CC(C)C)NC(=O)C(CCCCNC(=N)N)NC(=O)c1nc(C)n(-c2cc(Cl)cc(Cl)c2)n1 (stereo not drawn) [compound 5984] | IC50 [2]: > 180 µM
> 180 µM |  | COc1ccccc1C(CC(C)C)NC(=O)C(CCCCNC(=N)N)NC(=O)c1nc(C)n(-c2cc(Cl)cc(Cl)c2)n1 (stereo not drawn) [compound 5985] | IC50 [2]: > 180 µM
> 180 µM | > 180 µM | Cc1nc(C(=O)N[C@@H](CCCNC(=N)N)C(=O)NC(CC(=O)NCc2ccccc2)CC(C)C)nn1-c1cc(Cl)cc(Cl)c1 (stereo partly drawn) [compound 6000] | 
> 180 µM | > 180 µM | CCN(Cc1ccccc1)C(=O)CC(CC(C)C)NC(=O)[C@H](CCCNC(=N)N)NC(=O)c1nc(C)n(-c2cc(Cl)cc(Cl)c2)n1 (stereo partly drawn) [compound 6001] | 
> 180 µM | > 180 µM | Cc1nc(C(=O)N[C@@H](CCCNC(=N)N)C(=O)NC(CC(=O)NCCc2ccccc2)CC(C)C)nn1-c1cc(Cl)cc(Cl)c1 (stereo partly drawn) [compound 6002] | 
 | > 180 µM | CCN(CCc1ccccc1)C(=O)CC(CC(C)C)NC(=O)[C@H](CCCNC(=N)N)NC(=O)c1nc(C)n(-c2cc(Cl)cc(Cl)c2)n1 (stereo partly drawn) [compound 6003] | 
57.7 µM | > 180 µM | Cc1nc(C(=O)NC(CCCNC(=N)N)C(=O)NC(CC(C)C)C(=O)NCCCc2ccccc2)nn1-c1cc(Cl)cc(Cl)c1 (stereo not drawn) [compound 6004] | 
> 180 µM | > 180 µM | CCN(CCCc1ccccc1)C(=O)C(CC(C)C)NC(=O)[C@H](CCCNC(=N)N)NC(=O)c1nc(C)n(-c2cc(Cl)cc(Cl)c2)n1 (stereo partly drawn) [compound 6005] | 
